Laboratory results taken from patent US20150218099A1, “METHODS FOR CONTROL OF AQUATIC WEEDS USING HERBICIDAL 4-AMINO-3-CHLORO-6-(4-CHLORO-2-FLUORO-3-METHOXYPHENYL)PYRIDINE-2-CARBOXYLIC ACIDS” (Dow AgroSciences LLC, priority 2014, published 2015).

How the values were obtained:
Hydrilla (HYLLI) [1] = test: Control of hydrilla: aboveground dry weight after submersed exposure (12 L tanks); assay type: in vivo, Hydrilla verticillata (L.f.) Royle; settings: final aboveground dry weight, thirty-three days following submersed exposure, untreated 1.047
Excerpt: Apical sections (12 to 15 centimeters (cm) in length) of hydrilla (HYLLI) were planted into small pots (13.5 cm length×3.75 cm diameter) containing topsoil amended with 14-14-14 slow release Osmocote® fertilizer (˜2.5 grams (g) Osmocote per kilogram (kg) soil). Approximately 5 to 7 cm of the apical section extended above the sediment at planting, and a sand cap was placed over the potting soil (˜2 cm deep). Plants were then transferred to 12 liter (L) acrylic tanks filled with well water. Tanks were maintained in a growth room with a 14:10 hour (h) photoperiod at 26° C. (±2° C.). Plants were allowed to grow for 17 days (d) before the treatments were initiated in triple replicate. Plants were treated with Compound 1 (halauxifen-methyl) at 0, 10, 100, 1000 parts per billion (ppb) with three replicates each. Treatments were only applied once. Plants were harvested at 33 d after initial treatment. At harvest, plants were rinsed free of algae and placed in paper sacks in a drying oven for 2 d at 70° C. temperature. Mean dry weights were determined and means separated using least significant differences (Table 1).

[2] = tested on: Eurasian Watermilfoil (MYPSP); test: Control of Eurasian watermilfoil: aboveground dry weight after exposure to Compound 1; assay type: in vivo, Myriophyllum spicatum L.; settings: thirty days following a 24-hour exposure, untreated 1.257
Excerpt: (§1) Apical sections (12 to 15 cm in length) of Eurasian watermilfoil (MYPSP) and curlyleaf pondweed (PTMCR) were planted into small pots (13.5 cm length×3.75 cm diameter) containing topsoil amended with 14-14-14 slow release Osmocote® fertilizer (˜2.5 g Osmocote/kg soil). Approximately 5 to 7 cm of the apical section extended above the sediment at planting, and a sand cap was placed over the potting soil (˜2 cm deep). Plants were then transferred to 12 L acrylic tanks filled with well water. Plants were allowed to grow for 7 d before the treatment was initiated in triple replicate. […] At harvest, plants were rinsed free of algae, roots and shoots were separated and placed in paper sacks in a drying oven for 4 days at 70° C. temperature, and dry weights were measured and compared to an untreated control treatment (Table 3).

[3] = tested on: Curlyleaf Pondweed (PTMCR); test: Control of curlyleaf pondweed: aboveground dry weight after exposure to Compound 1; assay type: in vivo, Potamogeton crispus L.; settings: thirty days following a 24-hour exposure, untreated 0.087
Excerpt: as §1

Hydrilla (HYLLI) [4] = test: Control of hydrilla: aboveground dry weight after exposure to Compounds 1 and 2 (14 L cylinders); assay type: in vivo, Hydrilla verticillata (L.f.) Royle; settings: final aboveground dry weight, SC formulation, untreated 2.48
Method: Apical sections of hydrilla (HYLLI) were planted in potting soil amended with Osmocote® fertilizer in small pots (13.5 cm length×3.75 cm diameter). A 2.54 cm sand layer was placed over the top of the potting soil. The pots containing hydrilla were placed into 14 L acrylic cylinders filled with well water and allowed to establish slight growth prior to treatment. Cylinders were then treated with Compound 1 (halauxifen-methyl 96 grams acid equivalent per liter (g ae/L) Suspension Concentrate (SC)) or Compound 2 (benzyl 4-amino-3-chloro-5-fluoro-6-(4-chloro-2-fluoro-3-methoxyphenyl)pyridine-2-carboxylate (125 grams active ingredient per liter (g ai/L) SC)) at 50, 100 and 200 parts per billion (ppb). All treatments were replicated 4 times. […]

COC(=O)c1nc(-c2ccc(Cl)c(OC)c2F)cc(N)c1Cl [Compound 1, methyl 4-amino-3-chloro-6-(4-chloro-2-fluoro-3-methoxyphenyl)pyridine-2-carboxylate]
Dry Weight (grams) of HYLLI (Hydrilla (HYLLI) [1]; 10 ppb): 0.02 b grams | Dry Weight (grams) of HYLLI (Hydrilla (HYLLI) [1]; 100 ppb): 0.003 ab grams | Dry Weight (grams) of HYLLI (Hydrilla (HYLLI) [1]; 1000 ppb): 0 b grams | Dry Weight (grams) of MYPSP ([2]; 5 ppb): 0.000 b grams | Dry Weight (grams) of MYPSP ([2]; 10 ppb): 0.000 b grams | Dry Weight (grams) of MYPSP ([2]; 50 ppb): 0.000 b grams | Dry Weight (grams) of MYPSP ([2]; 100 ppb): 0.000 b grams | Dry Weight (grams) of PTMCR ([3]; 5 ppb): 0.117 a grams | Dry Weight (grams) of PTMCR ([3]; 10 ppb): 0.043 ab grams | Dry Weight (grams) of PTMCR ([3]; 50 ppb): 0.000 b grams | Dry Weight (grams) of PTMCR ([3]; 100 ppb): 0.000 b grams | Dry Weight (grams) of HYLLI (Hydrilla (HYLLI) [4]; 50 ppb): 0.02 b grams | Dry Weight (grams) of HYLLI (Hydrilla (HYLLI) [4]; 100 ppb): 0.64 ab grams | Dry Weight (grams) of HYLLI (Hydrilla (HYLLI) [4]; 200 ppb): 0 b grams

COc1c(Cl)ccc(-c2nc(C(=O)OCc3ccccc3)c(Cl)c(N)c2F)c1F [Compound 2, benzyl 4-amino-3-chloro-5-fluoro-6-(4-chloro-2-fluoro-3-methoxyphenyl)pyridine-2-carboxylate]
Dry Weight (grams) of HYLLI (Hydrilla (HYLLI) [4]; 50 ppb): 0 b grams | Dry Weight (grams) of HYLLI (Hydrilla (HYLLI) [4]; 100 ppb): 0 b grams | Dry Weight (grams) of HYLLI (Hydrilla (HYLLI) [4]; 200 ppb): 0 b grams
